The numbers were not newly measured in patent US20170049816A1, “Methods of Benchmarking Wellness with a Stable Reactive Oxygen Species Solution” (Reoxcyn Discoveries Group, Inc., priority 2013, published 2017), which cites them from elsewhere.

The conditions of the data set: pH-neutral aqueous solution (pH around 7.0) at room temperature.

Regarding `O=[O+][O-]` [dissolved ozone (O3), ozone], the half-life entry is “about 20 min”.
